This is an account of results in publication PMC6271609, “Secondary Metabolites from Vietnamese Marine Invertebrates with Activity against Trypanosoma brucei and T. cruzi” (Molecules, 2014).

What is called CC50 is the concentration that lowers cell viability or growth by half. One may read the EC50 as the concentration at which the effect is half-maximal.

One series deals with U2OS human cell. Put plainly: Host cell number in the T. cruzi high content image assay. It counts as cell-based. As to conditions: 50.0 μM, 48 h, U2OS infected with T. cruzi. As to the method: (§1) The assay for activity against T. cruzi Y strain was performed as previously described. Briefly, T. cruzi parasites were maintained in form of Tissue Culture Trypomastigote (TCT) by circulation in LLC-MK2 cell line (CCL-7, ATTC, Manassas, VA, USA). Seven days after the infection, the supernatant containing TCT parasites was collected and used to reinfect new cultures of LLC-MK2. The U2OS human cell (HTB-96, ATCC), cultivated in DMEM-high glucose media supplemented with 10% heat inactivated FBS, was used for the in vitro assay preparation. The cells were infected with the TCT form of T. cruzi. A homogeneous mixture of parasites and cells in DMEM-low glucose media, supplemented with 2% heat inactivated FBS, and was seeded into 384-well plates at 50.0 µL/well. The test compounds (final concentration of 50.0 µM) were added in 10.0 µL of 6% DMSO (final concentration, 1% DMSO) and the cells were incubated for 48 h at 37 °C, 5% CO2. After the incubation, the cells and parasites were fixed with 4% PFA and stained with 5.0 µM Draq5. Fluorescent images were acquired from each assay well using an Operetta microscope (Perkin Elmer).
The acquired images from the high content intracellular T. cruzi screening were subjected to in-house software to quantify cell numbers, parasite numbers, and infection ratio as previously described. […]

Another series relates to HEK293T cells. In words: Cytotoxicity assay, resazurin, HEK293T. It is filed as cell-based, human. As to conditions: pure compounds up to 100 µM. As to the method: (§2) HEK293T and HepG2 cells were cultured at 37 °C with 5% CO2 in Dulbecco’s modified eagle medium containing 10% FBS. Both cell types were plated individually in 384 well plates for testing the natural compounds at 3-fold dilution from 100 µM in 10-points concentration and incubated for 3 days. To determine viability, 10.0 µL of a 280 µM solution of resazurin sodium salt in water was added to the cells in the assay plate for at least 5 h (final concentration, 40.0 µM of resazurin) and resazurin reduction was measured with a Victor 3^TM fluorimeter (PerkinElmer) at 530 nmEx/590 nmEm.
(§3) The acquired images from the high content intracellular T. cruzi screening were subjected to in-house software to quantify cell numbers, parasite numbers, and infection ratio as previously described. Each compound’s activity was normalized based on values of drug positive and negative control (120 nM of pentamidine for T. brucei and T. cruzi assays, 83.0 µM of chlorpromazine for cytotoxicity, and DMSO as 0% drug activity for negative control). Dose response curves were fitted by sigmoidal dose-response with variable slope, equation described as Y = Bottom + (Top − Bottom)/(1 + 10^(LogEC5 − X) − HillSlpe) using GraphPad Prism 6 Software (GraphPad Software, Suite 230 La Jolla, CA, USA).
In general terms: Resazurin is reduced to fluorescent resorufin, in cell work by metabolically active cells.

Series [1] is described as follows: Cytotoxicity assay, resazurin, HEK293T. It counts as cell-based, human. Conditions: human. As to the method: as §2, §3
In series [2] the test system is T. brucei strain 427 bloodstream forms. In words: Anti-trypanosomal activity on T. brucei, resazurin dose response. It is filed as cell-based, Trypanosoma brucei. As to conditions: for SI (Selectivity index): relative to HEK293T and HepG2 cells vs T. brucei. How it is done:
T. brucei strain 427 bloodstream forms were cultivated at 37 °C with 5% CO2 in HMI-9 medium supplemented with 10% FBS. Cultivated parasites (2,500) were seeded in 384 well plates with the natural compounds and incubated for 3 days. After the incubation, the parasites were exposed to 120 µM of resazurin sodium salt (10.0 µL of a 720 µM solution in water) for 5 h. Then, the parasites were fixed with 4% PFA and the assay plates were read by Victor 3™ (PerkinElmer, Waltham, MA, USA) at 530 nmEx/590 nmEm. Pentamidine was used as a reference drug and DMSO 0.5% was used as a drug-negative control.
as §3

The subject of series [3] is intracellular amastigotes of T. cruzi Y strain. In words: Anti-trypanosomal activity on intracellular T. cruzi Y strain, high content image assay. It counts as cell-based, Trypanosoma cruzi. Conditions: for activity against intracellular T. cruzi (in words): 50.0 µM; for decrease of parasite survival / reduction of parasites growth compared to the DMSO control: 50.0 μM, 48 h, U2OS host cells. As to the method: as §1, §3

The subject of a further series is HepG2 cells. In words: Cytotoxicity assay, resazurin, HepG2. It is filed as cell-based, human. Conditions: pure compounds up to 100 µM. How it is done: as §2, §3
A short description of series [4]: Cytotoxicity assay, resazurin, HepG2. It is filed as cell-based, human. Conditions: human. How it is done:
as §2, §3

For another series, the system named is Plasmodium falciparum. Also on record: method as in PMID 21157686. Conditions: cited from earlier work.
A further series has as its system T. brucei rhodesiense. Also on record: method as in PMID 21157686. As to conditions: cited from earlier work.
The mark [5] stands for this setting: HEK293T cells, HEK293T, 3 days, highest concentration 100 µM, read-out: Cytotoxicity CC50 Values HEK293T.
[6] abbreviates: Trypanosoma brucei, 72 h, bloodstream forms, 3 days incubation, resazurin, read-out: T. brucei EC50 Values.
Where [7] appears, read: HepG2 cells, HepG2, 3 days, highest concentration 100 µM, read-out: Cytotoxicity CC50 Values HepG2.

Each structure is given as a SMILES string. “Also recorded” adds a separate entry of the source. Where two headings read alike, the source gives them in different places. Some results are limits rather than exact numbers.

As to `CC(C)CCC[C@@H](C)[C@H]1CCC2=C3[C@H](O)C[C@H]4C[C@@H](O)CC[C@]4(C)[C@H]3CC[C@@]21C` [Compound 5, 5α-cholest-8(14)-ene-3β,7α-diol], the “reduction of the host cells” value in the series on U2OS human cell is “not significantly reduced”. For the same compound, the “cytotoxicity on HEK293T (in words)” value with HEK293T cells is given as “did not show any cytotoxicity”. The CC50 at 3 days in [1] (HEK293T, 3 days, highest concentration 100 µM, read-out: Cytotoxicity CC50 Values HEK293T) was above 100 µM. The EC50 in series [2] (Trypanosoma brucei, 72 h, read-out: T. brucei EC50 Values) is above 30 µM. Further, the “activity against T. brucei (in words)” value in [2] (bloodstream forms) was “inactive”. In series [3], the “activity against intracellular T. cruzi (in words)” value was “significant activity; also recorded: significant inhibitory effects; also recorded: active” and the “decrease of parasite survival / reduction of parasites growth compared to the DMSO control” value worked out at 97.1%. Moreover, in the series on HepG2 cells, the “cytotoxicity on HepG2 (in words)” value is listed as “did not show any cytotoxicity”. Also, the CC50 at 3 days in [4] (HepG2, 3 days, highest concentration 100 µM, read-out: Cytotoxicity CC50 Values HepG2) is above 100 µM.
Consider `N=C(N)c1ccc(OCCCCCOc2ccc(C(=N)N)cc2)cc1` [Pentamidine, reference compound], for which the CC50 at 3 days in series [1] (setting [5]) and in series [4] (setting [7]) was below 0.4 µM in each case. Also, in series [2] (setting [6]), the EC50 is 0.015 ± 0.003 µM. For the same compound, the “SI (Selectivity index)” value in [2] was below 26.7; in [2] (listed as pentamidine), 26.7.
As for `CC(C)CCC[C@@H](C)[C@H]1CC[C@H]2C3=C(CC[C@]12C)[C@@]1(C)CC[C@H](O)C[C@]1(O)[C@H](O)[C@H]3O` [Compound 4, cholest-8-ene-3β,5α,6β,7α-tetraol], the 50% cytotoxic concentration (CC50) at 3 days in series [1] and in [4] was above 100 µM throughout. The EC50 in series [2] (setting [6]) was 14.6 ± 1.36 µM. Also, the “SI (Selectivity index)” value in [2] is above 6.8.
Take `C=C1CO[C@H]2/C=C(\C)CC[C@@H]3O[C@]3(C)CC/C=C(\C)CC[C@@]12O` [Compound 1, laevigatol B]: in the series with U2OS human cell, the “reduction of the host cells” value amounted to 33%. The “cytotoxicity on HEK293T (in words)” value in the series on HEK293T cells was “did not display cytotoxicity”. The CC50 at 3 days in [1] (setting [5]) and in [4] (setting [7]) was above 100 µM throughout. Moreover, the EC50 was found to be 5.34 ± 0.47 µM in [2] (setting [6]) and 1.69 ± 0.12 µg/mL in [2] (Trypanosoma brucei, bloodstream forms, resazurin, read-out: T. brucei EC50). In series [2], the “SI (Selectivity index)” value was above 18.7. For the same compound, in [3], the “activity against intracellular T. cruzi (in words)” value is reported as “significant activity; also recorded: significant inhibitory effects; also recorded: active”. Also, the “decrease of parasite survival / reduction of parasites growth compared to the DMSO control” value in [3] amounted to 84.8%. The “cytotoxicity on HepG2 (in words)” value in the series with HepG2 cells is listed as “did not display cytotoxicity”.
For the compound `CN(C)CCCN1c2ccccc2Sc2ccc(Cl)cc21` [Chlorpromazine, reference compound], the CC50 at 3 days is 19.9 ± 3.48 µM in series [1] (setting [5]) and 16.5 ± 0.45 µM in series [4] (setting [7]).
In the case of `CC(C)CCC[C@@H](C)[C@H]1CC[C@@H]2[C@]1(C)CC[C@@H]1[C@@]3(C)CC[C@H](O)C[C@@H]3[C@@H](C=O)[C@]12O` [Compound 3, astropectenol A], the CC50 at 3 days in series [1] (setting [5]) and in series [4] (setting [7]) was above 100 µM in each case. Also, the EC50 was determined as 1.17 ± 0.14 µM in [2] (setting [6]) and 1.57 ± 0.14 µM in series [2] (bloodstream forms, 3 days incubation, resazurin, read-out: T. brucei EC50 Values). Moreover, the “SI (Selectivity index)” value in [2] is on record as above 63.7.
Turning to `C/C1=C\CC/C(C)=C/C[C@](O)(C(C)C)CC/C(C)=C/CC1` [serratol], the “activity against Plasmodium falciparum (in words)” value in the series on Plasmodium falciparum is “active”. Further, in the series on T. brucei rhodesiense, the “activity against T. brucei rhodesiense (in words)” value was “active”.
For `CC(C)[C@@H](C)CC[C@@H](C)[C@H]1CC[C@H]2[C@@H]3CCC4=CC(=O)CC[C@]4(C)[C@H]3CC[C@]12C` [Compound 2, (24S)-ergost-4-ene-3-one], the 50% cytotoxic concentration (CC50) at 3 days in series [1] (setting [5]) and in [4] (setting [7]) was above 100 µM each time. For the same compound, in series [2] (setting [6]), the EC50 came to 5.47 ± 0.27 µM. Further, the “SI (Selectivity index)” value in [2] was above 18.3.
